Earlier results on 6 compounds are cited in patent US11324828B2, “Hydrogel polymeric compositions and methods” (Incept, LLC, priority 2007, dated 2022).

As usually defined, the Solubility is the concentration that dissolves in the medium under given conditions.

Like-named read-outs stand apart in the source and are kept apart here. Some results are limits rather than exact numbers.

Test in series [1]: not given
The source holds these as a separate data set.

Turning to `CCCCN1CCCCC1C(=O)Nc1c(C)cccc1C` (stereo not drawn) [Bupivacaine], the water solubility entry is “about 86 mg/L”.

`O=C(O)Cc1ccccc1Nc1c(Cl)cccc1Cl` [Diclofenac Sodium]: the water solubility entry is listed as “about 1113 mg/L”. On to `CCc1cccc2c3c([nH]c12)C(CC)(CC(=O)O)OCC3` (stereo not drawn) [Etodolac], for which the Solubility result in series [1] (in water) is given as “Insoluble in water”. `CC(C(=O)[O][Ca][O]C(=O)C(C)c1cccc(Oc2ccccc2)c1)c1cccc(Oc2ccccc2)c1` (stereo not drawn) [Fenoprofen Calcium]: in series [1] (in water), the Solubility entry was “Slightly soluble in water”. As for `Cc1ccc(Cl)c(Nc2ccccc2C(=O)[O-])c1Cl.[Na+]` [Meclofenamate Sodium], the Solubility in series [1] (@ pH 7.2) was <50 μg/mL @ pH 7.2 50 mg/mL @ pH 9.0. For `NC(=O)Cc1cccc(C(=O)c2ccccc2)c1N` [Nepafenac], in series [1] (no pH or medium printed), the Solubility is <1 mg/ml (The drug is available as 0.1% suspension).
